Data as given in patent publication EP1075186B1, “METHOD OF HSV PROPHYLAXIS” (The Children's Hospital Research Foundation, priority 1998, dated 1999).
Converted amounts (≈) assume the structure as drawn. “And” between values parts separate entries of the source, which are not always exact repeats. Equal values may be shown once.

How the values were obtained:
HCMV [1] = assay: Plaque reduction assay, HCMV; format: cell-based; conditions: Human betaherpesvirus 5, Table 19
Description: (§1) Two days prior to use, HFF cells are plated into six well plates and incubated at 37°C with 5% CO2 and 90% humidity. On the date of assay, the drug is made up at twice the desired concentration in 2X MEM and then serially diluted 1:5 in 2X MEM using six concentrations of drug. The initial starting concentration isusually 200 µg/ml down to 0.06 µg/ml. The virus to be used is diluted in MEM containing 10% FBS to a desired concentration which will give 20 - 30 plaques per well. The media is then aspirated from the wells and 0.2 ml of virus is added to drug toxicity wells. The plates are then incubated for one hour with shaking every fifteen minutes. After the incubation period, an equal amount of 1% agarose was added to an equal volume of each drug dilution. This will give final drug concentrations beginning with 100 µg/ml and ending with 0.03 µg/ml and a final agarose overlay concentration of 0.5%. The drug agarose mixture is applied to each well in 2 ml volume and the plates then incubated for three days, after which the cells were stained with a 1.5 % solution of neutral red. At the end of 4-6 hr incubation period, the stain is aspirated, and plaques counted using a stereomicroscope at 10X magnification.
The procedure is essentially the same as for HSV analysis with the following minor changes. […]

HCMV [2] = conditions: Table 19
Description: (§2) Newborn human foreskin were obtained as soon as possible after circumcisions were performed and placed in minimal essential medium (MEM) containing vacomycin, fungizone, penicillin, and gentamycin, at the usual concentrations, for four hours. The medium was then removed, the foreskin minced into small pieces and washed repeatedly until red cells were no longer present. The tissue was then trypsinized using trypsin at 0.25% with continuous stirring for 15 minutes at 37°C in a CO2 incubator. At the end of each 15 minute period, the tissue was allowed to settle to the bottom of the flask. The supernatant containing cells was poured through sterile cheesecloth into a flask containing MEM and 10% fetal bovine serum. The flask containing the medium was kept on ice through out the trypsinizing procedure. After each addition of cells, the cheesecloth was washed with a small amount of MEM containing serum. Fresh trypsin was added each time to the foreskin pieces and the procedure repeated until no more cells became available. The cell containing medium was then centrifuged at 1000 RPM at 4°C for ten minutes. The supernatant liquid was discarded and the cells resuspended in a small amount of MEM with 10% FBS. The cells were then placed in an appropriate number of 25 cm^2 tissue culture flasks. As cells became confluent and needed trypsinization, they were gradually expanded into larger flasks. […]

HSV-2 strain 186 = assay: Mouse genital HSV-2 model, intravaginal prophylaxis; format: in vivo, Swiss Webster mice; conditions: Table 21; for Virus Isolated / Dead: 2% intravaginal, one treatment just prior to HSV-2 challenge, 15 mice; for Virus Isolated: number of animals; for Dead: observed to day 21 PI
Description: Sixty female Swiss Webster mice pretreated with medroxyprogesterone acetate were randomized to four groups of 15 to receive either Saline (control), 2 % Acyclovir, 2 % Compound 96, or 0.5% Compound 96. Animals were anesthetized by intraperitoneal injection of sodium pentabarbital and then administered 15 µl of control or test compound intravaginally in one treatment. They were then immediately challenged by intravaginal instillation with 15 µl of a suspension containing 10^4 plaque forming units HSV-2 strain 186. Vaginal swabs were collected on days 1 and 2 post-inoculation (PI) to assess the effect of treatment on vaginal replication in the genital tract. In addition, all animals were examined daily until day 21 PI for mortality and signs of infection (erythema, hair loss and hind limb paralysis).

EBV = EBV screening test (IMN); format: cell-based; conditions: human gammaherpesvirus 4, Table 19
VZV = assay: Plaque reduction assay, VZV; format: cell-based; design: EC50 VZV Plaque: unit not given beside the values
Description: as §1, with “The media is then aspirated from the wells and 0.2 ml of virus is added to drug toxicity wells.” left out, “The drug agarose mixture is applied to each well in 2 ml volume and the plates then incubated for three days, after which the cells were stained with a 1.5 % solution of neutral red.” left out, “magnification. […] After addition of the drug, the plates are incubated for ten days. • 2. On days three and six an additional 1 ml overlay with equal amounts of 2X MEM and 1% agarose are added. The procedure for the liquid overlay plaque assay is similar to that using the agarose overlay. The procedure for adding the virus is the same as for the regular plaque assay. The drugs are made up in a concentration to be used in MEM with 2% FBS. […]” for “magnification.”

HSV-1 [3] = assay: Plaque reduction assay, HSV-1; format: cell-based; conditions: Human alphaherpesvirus 1; Table 19
Description: as §1, with “The media is then aspirated from the wells and 0.2 ml of virus is added to drug toxicity wells.” left out, “The drug agarose mixture is applied to each well in 2 ml volume and the plates then incubated for three days, after which the cells were stained with a 1.5 % solution of neutral red.” left out, “magnification. The procedure for the liquid overlay plaque assay is similar to that using the agarose overlay. The procedure for adding the virus is the same as for the regular plaque assay. The drugs are made up in a concentration to be used in MEM with 2% FBS. […] For CMV and VZV, no antibody in the overlay is utilized. For the CMV assay, additional medium without new drug is added on day six and allowed to incubate for a total of 11 days. […]” for “magnification.”

HSV-1 [4] = assay: Cytopathic effect inhibition assay, HSV-1; format: cell-based; conditions: Human alphaherpesvirus 1; Table 19; read-out: EC50 HSV-1 CPE
Description: as §2

HSV-2 = assay: Cytopathic effect inhibition assay, HSV-2; format: cell-based; conditions: Human alphaherpesvirus 2; Table 19; read-out: EC50 HSV-2 CPE
Description: as §2

HFF cells = assay: Cell proliferation assay; format: cell-based, human; conditions: Table 20; RAPIDLY GROWING CELLS
Description: On the day of the assay, drugs are diluted serially in MEM containing 10% FBS at increments of 1:5 covering a range from 100 μg/ml to 0.03 μg/ml. For drugs that have to be solubilized in DMSO, control wells […] MEM containing 10% DMSO. The media from the wells is then aspirated and 2 ml of each drug concentration is then added to each well. The cells are then incubated in a CO2 incubator at 37°C for 72 hours. At the end of this time, the media-drug solution is removed and the cells washed. […] The cell-media mixture is then pipetted up and down vigorously to break up the cell suspension and 0.2 ml of the mixture is added to 9.8 ml of Isoton III and counted using a Coulter Counter. Each sample is counted three times with three replicate wells per sample.

[5] = 2%, mean log10 viral titers ± SEM, infected animals only

Nc1nc2c(ncn2COC(CO)CO)c(=O)[nH]1 [DHPG]
EC50 (HCMV [1]): 0.7 µg/mL (≈ 2.74 µM)
EC50 HCMV CPE (HCMV [2]): 0.8 µg/mL (≈ 3.13 µM)

Nc1nc2c(ncn2COCCO)c(=O)[nH]1 [Acyclovir]
Virus Isolated (HSV-2 strain 186): 12
Virus Isolated (HSV-2 strain 186; listed as acyclovir): 12/15
Dead (HSV-2 strain 186): 12
Dead (HSV-2 strain 186; listed as acyclovir): 12/15
Vaginal Virus Titer Day 1 (HSV-2 strain 186; [5]): 1.96 ± 0.38 log10
Vaginal Virus Titer Day 2 (HSV-2 strain 186; [5]): 3.82 ± 0.38 log10
EC50 (EBV): 6 µg/mL (≈ 26.6 µM)
EC50 (VZV; Human alphaherpesvirus 3, Table 19): 3.2 µg/mL (≈ 14.2 µM)
EC50 VZV Plaque (VZV; Table 19, listed as ACV): 4.4 and 3.1 and 3.0
EC50 (HSV-1 [3]): 0.2 µg/mL (≈ 0.888 µM)
EC50 (HSV-1 [4]): 0.2 µg/mL (≈ 0.888 µM)
EC50 (HSV-2): 0.7 µg/mL (≈ 3.11 µM)

O=c1[nH]c(=O)n([C@@H]2O[C@H](CO)[C@@H](O)[C@@H]2F)cc1I [FIAU, 2'-fluoro-5-iodo-arabinosyl-uracil]
TOXICITY ASSAYS - IC50 CELL PROLIFERATION (HFF cells): 3.3 MCG/ML and 8.4 MCG/ML
